# Tests used:
# CYPDI = test: Example V post-emergence field trials in direct-seeded rice; assay type: in vivo, Cyperus difformis; settings: foliar, field trial Greece
# Experimental: (§1) Multiple field trials were conducted under commercial grower field conditions in Tolima, Colombia; Thessaloniki, Greece; Bianze and Copiano, Italy; and Humphrey, Ark., USA. Trials sites were located in commercially grown fields of direct-seeded rice (Oryza sativa) using standard herbicide small plot research methodology. Plots varied from 2 to 3 meter (m)×5 to 8 m (width×length) with 4 replicates per treatment. The rice crop was grown using normal cultural practices for fertilization, seeding, watering, flooding and maintenance to ensure good growth of the crop and the weeds.
# (§2) All treatments in the field trials were applied using a backpack compressed air/gas sprayer with flat fan nozzles (80° or 110°) calibrated to apply 187 to 300 L/ha spray volume at approximately 200-400 kPa nozzle pressure. Commercially available products of cyhalofop-butyl (Clincher 180EC, Clincher 200EC, and Clincher SF (285 gr ai/L EC)) were mixed in water at appropriate formulated product rates to achieve the desired rates based on a unit area of application (hectare) to achieve the desired rates as shown. Treatments were rate at 19 to 58 days after application (DAA) as compared to the untreated control plants. Visual weed control was scored on a scale of 0 to 100 percent where 0 corresponds to no injury and 100 corresponds to complete kill. […]
# ECHCO = test: as above; assay type: in vivo, Echinochloa colona; settings: foliar, field trial Tolima, Colombia
# Experimental: as §1, §2
# ECHCG = test: Example VI in-water applied ternary mixtures, greenhouse, transplanted paddy rice weeds; assay type: in vivo, Echinochloa crus-galli (L.) Beauv.
# Method in brief: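 Compound A (SC, acid-equivalent basis) alone or with cyhalofop-R-butyl or metamifop plus a third herbicide, injected into paddy water of greenhouse-grown transplanted rice and weeds at 1st–4th leaf stage (~29/26 °C). Visual injury scored 0–100% after ~3 weeks vs untreated; expected mixture effects by Colby's equation.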
compound,measurement,setting,value
"COc1c(Cl)ccc(-c2nc(C(=O)OCc3ccccc3)c(Cl)c(N)c2F)c1F [Compound A Benzyl Ester, benzyl ester of 4-amino-3-chloro-5-fluoro-6-(4-chloro-2-fluoro-3-methoxy-phenyl)pyridine-2-carboxylic acid]",Visual Weed Control (%) - 55-58 DAA CYPDI Obs,CYPDI; 24 gae/ha,81%
same,Visual Weed Control (%) - 19 DAA ECHCO Obs,ECHCO; 12 gae/ha,76%
same,Visual Weed Control (%) - 21 DAA ECHCG Obs,"ECHCG; 1.09 gae/ha, first set",0%
same,Visual Weed Control (%) - 21 DAA ECHCG Obs,"ECHCG; 1.09 gae/ha, first sub-table",0%
same,Visual Weed Control (%) - 21 DAA ECHCG Obs,"ECHCG; 2.19 gae/ha, first set",7%
same,Visual Weed Control (%) - 21 DAA ECHCG Obs,"ECHCG; 2.19 gae/ha, first sub-table",7%
same,Visual Weed Control (%) - 21 DAA ECHCG Obs,ECHCG; 4 gae/ha,25%
same,Visual Weed Control (%) - 21 DAA ECHCG Obs,"ECHCG; 4 gae/ha, second set",25%
same,Visual Weed Control (%) - 21 DAA ECHCG Obs,"ECHCG; 4 gae/ha, second sub-table",25%
same,Visual Weed Control (%) - 21 DAA ECHCG Obs,ECHCG; 8 gae/ha,45%
same,Visual Weed Control (%) - 21 DAA ECHCG Obs,"ECHCG; 8 gae/ha, second set",45%
same,Visual Weed Control (%) - 21 DAA ECHCG Obs,"ECHCG; 8 gae/ha, second sub-table",45%
same,Visual Weed Control (%) - 21 DAA ECHCG Obs,ECHCG; 16 gae/ha,99%
same,Visual Weed Control (%) - 21 DAA ECHCG Obs,"ECHCG; 16 gae/ha, second set",99%
same,Visual Weed Control (%) - 21 DAA ECHCG Obs,"ECHCG; 16 gae/ha, second sub-table",99%
same,Visual Weed Control (%) - 21 DAA ECHCG Obs,"ECHCG; Table 67, 4 gae/ha, 21 DAA",25%
same,Visual Weed Control (%) - 21 DAA ECHCG Obs,"ECHCG; Table 68, 4 gae/ha, 21 DAA",25%
same,Visual Weed Control (%) - 21 DAA ECHCG Obs,"ECHCG; Table 68, 8 gae/ha, 21 DAA",45%
same,Visual Weed Control (%) - 21 DAA ECHCG Obs,"ECHCG; Table 68, 16 gae/ha, 21 DAA",99%
"CCCCOC(=O)[C@@H](C)Oc1ccc(Oc2ccc(C#N)cc2F)cc1 [Cyhalofop-butyl, butyl(2R)-2-[4-(4-cyano-2-fluorophenoxy)phenoxy]propanoate, reference compound]",Visual Weed Control (%) - 55-58 DAA CYPDI Obs,CYPDI; 300 gai/ha,0%
same,Visual Weed Control (%) - 19 DAA ECHCO Obs,ECHCO; 280 gai/ha,0%
same,Visual Weed Control (%) - 21 DAA ECHCG Obs,"ECHCG; 22.5 gai/ha, first set",0%
same,Visual Weed Control (%) - 21 DAA ECHCG Obs,"ECHCG; 22.5 gai/ha, first sub-table",0%
same,Visual Weed Control (%) - 21 DAA ECHCG Obs,ECHCG; 45 gai/ha,30%
same,Visual Weed Control (%) - 21 DAA ECHCG Obs,"ECHCG; 45 gai/ha, first set",3%
same,Visual Weed Control (%) - 21 DAA ECHCG Obs,"ECHCG; 45 gai/ha, first sub-table",3%
same,Visual Weed Control (%) - 21 DAA ECHCG Obs,"ECHCG; 45 gai/ha, second set",30%
same,Visual Weed Control (%) - 21 DAA ECHCG Obs,"ECHCG; 45 gai/ha, second sub-table",30%
same,Visual Weed Control (%) - 21 DAA ECHCG Obs,"ECHCG; Table 67, 45 gai/ha, 21 DAA",30%
same,Visual Weed Control (%) - 21 DAA ECHCG Obs,"ECHCG; Table 68, 45 gai/ha, 21 DAA",30%
